Source: ChEMBL document CHEMBL4196052, “Rational modifications on a benzylidene-acrylohydrazide antiviral scaffold, synthesis and evaluation of bioactivity against Chikungunya virus” (Eur J Med Chem, 2018)

Tests used:
Chikungunya virus [1] = assay: Antiviral activity against Chikungunya virus Indian Ocean strain 899 infected in African green monkey Vero cells assessed as inhibition of viral-induced cytopathic effect measured on day 5 post infection by MTS/PMS assay; assay type: functional, organism-based, Indian Ocean 899; settings: for EC90 / EC50: Chikungunya virus, Indian Ocean 899, Vero, 120 h
Chikungunya virus [2] = assay: Antiviral activity against Chikungunya virus Indian Ocean strain 899 infected in African green monkey Vero cells assessed as inhibition of viral-induced cytopathic effect by measuring concentration required for maximum activity measured on day 5 post infection by MTS/PMS assay; assay type: functional, Indian Ocean 899

Row | SMILES | Imax (Chikungunya virus [1]) [%] | EC90 (Chikungunya virus [1]) [µM] | Activity (Chikungunya virus [2]) [µM] | EC50 (Chikungunya virus [1]) [µM]
1 | CCOc1ccc(/C=N/NC(=O)/C=C/c2ccc(C(C)(C)C)cc2)cc1OCC | 100 | 11 | 12.5 | –
2 | CCOc1ccc(/C=N/NC(=O)c2cc3ccccc3[nH]2)cc1OCC | 50 | > 213 | 213 | > 213
3 | Cc1ccc(/C=N/NC(=O)c2cnc3ccccc3c2)cc1 | 27 | > 346 | 346 | > 346
4 | O=C(N/N=C/c1ccc(O)cc1)c1cnc2ccccc2c1 | <1 | > 343 | 343 | > 343
5 | CCOc1ccc(/C=N/NC(=O)c2ccc3ccccc3n2)cc1OCC | 8 | > 275 | 275 | > 275
6 | Cc1ccc(/C=N/NC(=O)c2nc3ccccc3[nH]2)cc1 | 14 | > 120 | 120 | > 120
7 | C/C(=N\NC(=O)/C=C/c1ccc(C(F)(F)F)cc1)c1ccc(C2CCCCC2)cc1 | 12 | > 241 | 241 | > 241
8 | CCOc1ccc(/C=N/NC(=O)c2nc3ccccc3[nH]2)cc1OCC | 6 | > 284 | 284 | > 284
9 | COc1ccc(/C=C/C(=O)N/N=C/c2ccc(C)cc2)cc1 | 13 | > 112 | 112 | > 112
10 | CCOc1ccc(/C=N/NC(=O)/C=C/c2ccc(C(C)C)cc2)cc1OCC | 30 | > 29.2 | 8 | > 29.2
11 | O=C(N/N=C/c1ccc(O)cc1)c1ccc2ccccc2n1 | <1 | > 343 | 343 | > 343
12 | CCOc1ccc(/C=N/NC(=O)c2cnc3ccccc3c2)cc1OCC | 3 | > 275 | 275 | > 275
13 | Cc1ccc(/C=N/NC(=O)c2ccc3ccccc3n2)cc1 | 3 | > 346 | 346 | > 346
14 | C/C(=N\NC(=O)/C=C/c1ccc(-c2ccccc2)cc1)c1ccc(C2CCCCC2)cc1 | 15 | > 29.6 | 30 | > 29.6
15 | O=C(N/N=C/c1ccc(O)cc1)c1ccc2ccccc2c1 | 2 | > 344 | 344 | > 344
16 | C/C(=N\NC(=O)/C=C/c1ccc(C(C)C)cc1)c1ccc(C2CCCCC2)cc1 | 13 | > 193 | 193 | > 193
17 | CCOc1ccc(/C=N/NC(=O)/C=C/c2ccc(OC)cc2)cc1OCC | 8 | > 271 | 45 | > 271
18 | Cc1ccc(/C=N/NC(=O)c2ccc3ccccc3c2)cc1 | 10 | > 347 | 347 | > 347
19 | CCOc1ccc(/C=N/NC(=O)c2ccc3ccccc3c2)cc1OCC | 24 | > 276 | 276 | > 276
20 | Cc1ccc(/C=N/NC(=O)c2cc3ccccc3[nH]2)cc1 | 45 | > 361 | 361 | > 361
21 | COc1ccc(/C=C/C(=O)N/N=C(\C)c2ccc(C3CCCCC3)cc2)cc1 | 9 | > 87.7 | 66 | > 87.7
22 | O=C(N/N=C/c1ccc(O)cc1)c1cc2ccccc2[nH]1 | 51 | > 358 | 358 | 348
23 | CCOc1ccc(/C=N/NC(=O)/C=C/c2ccc(-c3ccccc3)cc2)cc1OCC | 47 | > 80.2 | 120 | > 80.2
24 | CCN(CC)CCCC(C)Nc1ccnc2cc(Cl)ccc12 (configuration not stated) [CHLOROQUINE] | – | 21 | – | –
